Source: patent publication US20260294871A1, “PHARMACEUTICAL COMBINATIONS AND COMPOSITIONS THEREOF COMPRISING ANTIBACTERIAL AGENTS” (priority 2023, published 2026)
Where “and” joins values, the source holds several entries; their conditions need not be identical. Equal entries are not always repeated. Where two headings read alike, the source gives them in different places.

Legend:
Escherichia coli = assay: MIC by broth microdilution against E. coli; type: cell-based; details: Escherichia coli, highly resistant strains
Protocol: (§1) In a typical study MIC tests were performed by broth microdilution in line with CLSI susceptibility testing standards. Bacterial inocula were prepared at ca. 1×10^6 CFU/mL by diluting 100-fold a 0.5 McFarland suspension in CA-MHB with TES. Microtiter plate wells containing 50 μL of antibacterial solutions at 2×the final concentrations were diluted 2-fold with 50 μL of inoculum to give a final inoculum of ca. 5×10^5 CFU/mL and desired test concentrations of antibacterial agents. Test microtiter plates were incubated according to CLSI guidelines and read visually. MIC values corresponded to the first well with no visible growth.
The results of antibacterial activity of amikacin, Ceftazidime-avibactam, Ceftriaxone with sulbactam and EDTA, Meropenem and Meropenem with avibactam and EDTA against highly resistant strains of Escherichia coli are given in Table 3. […] There was a marked improvement in antibacterial activity, compared to MEM alone, observed for the triple combination MEM/AVI [4 mg/L]/EDTA [10 mM] with a MIC90 at 0.004 μg/mL

[1] = test system: all grouped isolates from India; assay: MIC by broth microdilution against all grouped isolates from India; type: cell-based, resistant bacterial strains
Protocol: as §1
There was a marked improvement in antibacterial activity, compared to MEM alone, observed for the triple combinations, for MEM/AVI [4 mg/L]/EDTA [10 mM] and MEM/AVI [4 mg/L]/EDTA [20 mM], the reduction in MIC90 was 0.06 μg/mL and ≤0.002 μg/mL, respectively.

[2] = test system: Enterobacterales isolates from India; assay: MIC by broth microdilution against Enterobacterales; type: cell-based, Enterobacteriaceae; details: n=301
Protocol: as §1
The results of antibacterial activity of amikacin, Ceftazidime-avibactam, Ceftriaxone with sulbactam and EDTA, Meropenem and Meropenem with avibactam and EDTA against highly resistant strains of Enterobacteriaceae are given in Table 2.

[3] = test system: Non-Enterobacteriaceae (non-fermenter isolates); assay: MIC by broth microdilution against Non-Enterobacteriaceae; type: cell-based
Protocol: as §1

Acinetobacter baumannii = assay: MIC by broth microdilution against Acinetobacter baumannii; type: cell-based
Protocol: as §1
The results of antibacterial activity of amikacin, Ceftazidime-avibactam, Ceftriaxone with sulbactam and EDTA, Meropenem and Meropenem with avibactum and EDTA against highly resistant strains of Acinetobacter baumannii are given in Table 7.

K. pneumoniae [4] = assay: MIC by broth microdilution against Klebsiella; type: cell-based, Klebsiella pneumoniae; details: highly resistant strains
Protocol: as §1
The results of antibacterial activity of amikacin, Ceftazidime-avibactam, Ceftriaxone with sulbactam and EDTA, Meropenem and Meropenem with avibactam and EDTA against highly resistant strains of Klebsiella (93. 3% Mem NS) are given in Table 4.

P. aeruginosa [5] = assay: MIC by broth microdilution against P. aeruginosa; type: cell-based, Pseudomonas aeruginosa; details: Pseudomonas aeruginosa, highly resistant strains
Protocol: as §1
The results of antibacterial activity of amikacin, Ceftazidime-avibactam, Ceftriaxone with sulbactam and EDTA, Meropenem and Meropenem with avibactum and EDTA against highly resistant strains of P. aeruginosa are given in Table 5. As may be seen, the activity of the comparators was much lower although CRO/S4/E10 maximum MIC90 were much lower at ≤0.03 μg/mL.

[6] = test system: Stenotrophomonas maltophilia; assay: MIC by broth microdilution against Stenotrophomonas maltophilia; type: cell-based; details: Stenotrophomonas maltophilia, highly resistant strains
Protocol: as §1
The results of antibacterial activity of amikacin, Ceftazidime-avibactam, Ceftriaxone with sulbactam and EDTA, Meropenem and Meropenem with avibactum and EDTA against highly resistant strains of Stenotrophomonas maltophilia are given in Table 8.

K. pneumoniae [7] = assay: MIC profile of EDTA, K. pneumoniae; type: cell-based, Klebsiella pneumoniae
Protocol: (§2) Objective: The in-vitro activity of ethylenediaminetetraacetic acid (EDTA) was tested in cation-adjusted Mueller Hinton broth (CA-MHB) and MHB against a panel of Gram-negative clinical isolates from India.
(§3) Method: A total of 80 isolates including ATCC strains and non-duplicate clinically relevant Escherichia coli (n=20), Klebsiella pneumoniae (n=20), Pseudomonas aeruginosa (n=21) and Acinetobacter baumannii (n=19) characterized isolates were selected prior to susceptibility testing. The clinical isolates were collected from hospitalized patients from tertiary care medical centers in India. Isolates were tested for susceptibility to different test concentrations of EDTA (1.25, 2.5, 5, 10, 20, 40, 80 mM) in CA-MHB media and MHB by broth microdilution.

P. aeruginosa [8] = assay: MIC profile of EDTA, P. aeruginosa; type: cell-based, Pseudomonas aeruginosa; details: for MIC: CA-MHB
Protocol: as §2, §3

Enterobacterales = assay: MIC profile of EDTA, Enterobacterales; type: cell-based; details: n = 40
Protocol: as §2, §3

E. coli = assay: MIC profile of EDTA, E. coli; type: cell-based, Escherichia coli; details: for MIC50 / MIC90 / MIC: Escherichia coli, n = 20
Protocol: as §2, §3

Non-fermenters = assay: MIC profile of EDTA, non-fermenters; type: cell-based; details: n = 40; for MIC: CA-MHB
Protocol: as §2, §3

All isolates (n = 80) = assay: MIC profile of EDTA, all tested isolates; type: cell-based, Gram-negative clinical isolates
Protocol: as §2, §3

A. baumannii = assay: MIC profile of EDTA, A. baumannii; type: cell-based, Acinetobacter baumannii
Protocol: as §2, §3

NCC[C@H](O)C(=O)N[C@@H]1C[C@H](N)[C@@H](O[C@H]2O[C@H](CN)[C@@H](O)[C@H](O)[C@H]2O)[C@H](O)[C@H]1O[C@H]1O[C@H](CO)[C@@H](O)[C@H](N)[C@H]1O [Amikacin]
8 µg/mL: MIC50 (Escherichia coli; read-out: MIC50)
> 64 µg/mL: MIC90 (Escherichia coli; read-out: MIC90) | MIC50 [1] | MIC90 [1] | MIC90 ([1]; all grouped isolates (606)) | MIC50 ([2]; read-out: MIC50) | MIC90 ([2]; read-out: MIC90) | MIC50 [3] | MIC90 [3] | MIC90 (Acinetobacter baumannii; Acinetobacter baumannii) | MIC50 (Acinetobacter baumannii; Acinetobacter baumannii, highly resistant strains) | MIC50 (K. pneumoniae [4]; Klebsiella pneumoniae, read-out: MIC50) | MIC90 (K. pneumoniae [4]; Klebsiella pneumoniae, read-out: MIC90) | MIC50 (P. aeruginosa [5]) | MIC90 (P. aeruginosa [5]; read-out: MIC90) | MIC50 ([6]; read-out: MIC50) | MIC90 ([6]; read-out: MIC90)
>64 µg/mL: MIC90 [2] | MIC90 ([3]; highly resistant strains) | MIC90 (Acinetobacter baumannii; highly resistant strains) | MIC90 (K. pneumoniae [4])

O=C(O)CN(CCN(CC(=O)O)CC(=O)O)CC(=O)O [EDTA, N,N′-(Ethane-1,2-diyl)bis[N-(carboxymethyl)glycine]]
>80 mM: MIC90 (K. pneumoniae [7]; CA-MHB, n = 20) | MIC MAX (All isolates (n = 80); MHB)
4 fold: MIC50 and MIC90 in MHB, fold lower to CA-MHB (E. coli; MHB vs CA-MHB)
≤ 1.25 mM: MIC (P. aeruginosa [8]; Pseudomonas aeruginosa, n = 21, read-out: MIC MIN) | MIC (E. coli; MHB, read-out: MIC MIN) | MIC (Non-fermenters; read-out: MIC MIN) | MIC (All isolates (n = 80); CA-MHB, read-out: MIC MIN)
> 80 mM: MIC90 (K. pneumoniae [7]; Klebsiella pneumoniae, CA-MHB, n = 20) | MIC (K. pneumoniae [7]; Klebsiella pneumoniae, CA-MHB, n = 20, read-out: MIC MAX) | MIC (K. pneumoniae [7]; Klebsiella pneumoniae, MHB, n = 20, read-out: MIC MAX) | MIC (E. coli; CA-MHB, read-out: MIC MAX) | MIC (All isolates (n = 80); CA-MHB, read-out: MIC MAX)
10 mM: MIC50 (P. aeruginosa [8]; MHB, n = 21) | MIC50 (P. aeruginosa [8]; Pseudomonas aeruginosa) | MIC50 (Enterobacterales; MHB) | MIC50 (E. coli; CA-MHB) | MIC50 (All isolates (n = 80); CA-MHB)
≤1.25 mM: MIC MIN (P. aeruginosa [8]; MHB, n = 21) | MIC MIN (Non-fermenters; MHB) | MIC MIN (All isolates (n = 80); MHB) | MIC MAX (A. baumannii; MHB, n = 19) | MIC MIN (A. baumannii; MHB, n = 19)
5 mM: MIC (K. pneumoniae [7]; Klebsiella pneumoniae, MHB, n = 20, read-out: MIC MIN)
≤1250 µM: MIC50 (A. baumannii; MHB, n = 19) | MIC90 (A. baumannii; MHB, n = 19)
≤ 1250 µM: MIC (Enterobacterales; MHB, read-out: MIC MIN) | MIC (A. baumannii; Acinetobacter baumannii, read-out: MICs) | MIC50 (A. baumannii; Acinetobacter baumannii, CA-MHB, n = 19, read-out: MIC50) | MIC90 (A. baumannii; Acinetobacter baumannii, CA-MHB, n = 19, read-out: MIC90) | MIC (A. baumannii; Acinetobacter baumannii, CA-MHB, n = 19, read-out: MIC MAX) | MIC (A. baumannii; Acinetobacter baumannii, CA-MHB, n = 19, read-out: MIC MIN)
80 mM: MIC50 (K. pneumoniae [7]; Klebsiella pneumoniae) | MIC90 (K. pneumoniae [7]; Klebsiella pneumoniae, MHB, n = 20) | MIC50 (K. pneumoniae [7]; MHB, n = 20) | MIC90 (Enterobacterales; MHB) | MIC90 (E. coli; CA-MHB) | MIC (E. coli; MHB, read-out: MIC MAX) | MIC90 (All isolates (n = 80); MHB)
2.5 mM: MIC (E. coli; CA-MHB, read-out: MIC MIN) | MIC50 (E. coli; MHB) | MIC50 (All isolates (n = 80); MHB)
20 mM: MIC (K. pneumoniae [7]; Klebsiella pneumoniae, CA-MHB, n = 20, read-out: MIC MIN) | MIC90 (P. aeruginosa [8]; MHB, n = 21) | MIC MAX (P. aeruginosa [8]; MHB, n = 21) | MIC90 (P. aeruginosa [8]; Pseudomonas aeruginosa) | MIC (P. aeruginosa [8]; Pseudomonas aeruginosa, n = 21, read-out: MIC MAX) | MIC90 (E. coli; MHB) | MIC (Non-fermenters; read-out: MIC MAX) | MIC MAX (Non-fermenters; MHB)
> 80000 µM: MIC (Enterobacterales; CA-MHB, read-out: MIC MAX) | MIC (Enterobacterales; MHB, read-out: MIC MAX)
2500 µM: MIC (Enterobacterales; CA-MHB, read-out: MIC MIN)
almost similar to CA-MHB: MIC in MHB compared to CA-MHB (K. pneumoniae [7]; MHB vs CA-MHB)
> 80 mM and >80 mM: MIC90 (Enterobacterales; CA-MHB) | MIC90 (All isolates (n = 80); CA-MHB)
40 mM: MIC50 (Enterobacterales; CA-MHB)
